Test results from patent publication US12202844B2, “MAP4K1 inhibitors” (Blueprint Medicines Corporation, priority 2021, dated 2025).
Read-outs that look alike come from different tables or passages of the source.

Legend:
[1] = system: Primary T Cell (expanded CD3+ T cells); test: T cell enhancement of cytokines: IL2 measurement (HTRF) in stimulated expanded CD3+ T cells; assay type: cell-based, human; conditions: plate-bound anti-CD3 and soluble anti-CD28, 24 h, IL2 by HTRF, read-out: IL-2 Primary T Cell EC50
Experimental: T cells are isolated from whole blood of healthy donors by immunomagnetic negative selection following manufacture's protocol (StemCell Technologies, human T cell isolation kit). Purity of isolated cells is assessed by flow cytometry and yields 95-98% CD3^+ T cells. For expansion of T cells, 1×10^6 cells/well are plated in serum free cell expansion media (ThermoFisher) containing 30 U of recombinant human IL2 (R&D) and stimulated with 25 ul of CD3/CD28 beads (Invitrogen) in 24 well plates for 3-4 days. T cells are then expanded in 175 cm flasks and maintained at a cell density of 1 to 2.5×10^6 cells/ml days by addition of ⅔ of fresh media every 2-3 days. After 10-14 days, cells are frozen in BamBanker freezing media (Thermo) and stored in liquid nitrogen.
For IL2 measurement, expanded CD3^+ T cells are dispensed at 100K cells/well (cultured in X-VIVO 10 Serum-free media) and are stimulated with plate-bound anti-CD3 and soluble anti-CD28 in the presence of vehicle or compound of the disclosure at various concentrations for 24 h. As outlined in the manufacturer's protocol (Cisbio), 16 μL of conditioned media is transferred to a white 384-well low volume plate. Following a 24 h incubation with the anti-IL2 antibodies, the homogenous time resolved fluorescence (HTRF) is measured.

[2] = target: T1, MAP4K1 (HPK1) (Homo sapiens, UniProt Q92918); test: Inhibition of MAP4K1 biochemical enzymatic activity (EZReader 2 electrophoretic mobility shift); conditions: HPK1 (Invitrogen), S6K2tide 1.5 μM, 120 min; ATP 26 μM or 1000 μM (not given)
T1 construct: purchased Invitrogen
Method in brief: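 Untreated enzyme (0.1-15 nM) was incubated with 1.5 μM fluorescent peptide and 20-1000 μM ATP (apparent Km or 1 mM) in HEPES pH 7.5, MgCl2, DTT, Brij 35 at 25° C. for 60-180 min, with 1% DMSO and a 10-point 4-fold compound series. After an EDTA stop, product/substrate peptide peak ratio was read by mobility shift.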

T1 sequence (Q92918 whole entry): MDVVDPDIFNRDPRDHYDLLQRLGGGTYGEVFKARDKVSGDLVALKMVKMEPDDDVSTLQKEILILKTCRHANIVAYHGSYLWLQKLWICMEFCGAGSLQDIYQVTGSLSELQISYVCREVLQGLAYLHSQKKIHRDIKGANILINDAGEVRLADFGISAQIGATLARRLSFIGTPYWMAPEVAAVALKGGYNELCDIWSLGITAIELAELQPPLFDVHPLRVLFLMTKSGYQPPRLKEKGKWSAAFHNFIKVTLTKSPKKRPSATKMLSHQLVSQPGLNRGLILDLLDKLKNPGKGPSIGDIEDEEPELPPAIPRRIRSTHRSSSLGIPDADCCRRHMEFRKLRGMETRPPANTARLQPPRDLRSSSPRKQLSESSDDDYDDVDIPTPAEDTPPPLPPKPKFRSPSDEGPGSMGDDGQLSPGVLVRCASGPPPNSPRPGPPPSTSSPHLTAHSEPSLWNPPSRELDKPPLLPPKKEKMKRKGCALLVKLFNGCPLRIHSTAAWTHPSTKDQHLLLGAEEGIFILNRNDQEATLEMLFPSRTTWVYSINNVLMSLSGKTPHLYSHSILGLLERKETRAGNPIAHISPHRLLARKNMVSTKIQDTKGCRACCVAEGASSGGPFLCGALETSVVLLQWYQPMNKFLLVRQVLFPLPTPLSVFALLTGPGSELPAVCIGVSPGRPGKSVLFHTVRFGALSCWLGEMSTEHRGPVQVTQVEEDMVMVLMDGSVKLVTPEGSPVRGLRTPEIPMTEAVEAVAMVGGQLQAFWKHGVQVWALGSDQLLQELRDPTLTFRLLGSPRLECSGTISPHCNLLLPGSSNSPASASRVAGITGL

SMILES | EC50 ([1]; Homo sapiens, T-cell, 24 h) | IC50 [2] | EC50 [1]
C[C@@H]1OC(=O)c2ccc(Nc3cc4c(C(C)(C)N)cnc(O[C@@H](C)C[C@@H]5CCCS5(=O)=O)c4cn3)nc2[C@H]1C (single isomer, unassigned) [Compound 155] | 17 nM | 0.37 nM | –
CCC[C@@H](N)c1cnc(O[C@H]2C[C@@H](S(C)(=O)=O)C2)c2cnc(Nc3ccc4c(n3)[C@@H](C)C(C)(C)OC4=O)cc12 (single isomer, unassigned) [Compound 79] | 94 nM | 0.34 nM | –
CC[C@@](C)(N)c1cnc(O[C@H](C)CCS(=O)(=O)CC)c2cnc(Nc3ccc4c(n3)[C@@H](C)[C@H](C)OC4=O)cc12 (single isomer, unassigned) [Compound 93] | – | 0.19 nM | 9 nM
CC[C@@](C)(N)c1cnc(O[C@H](C)CCS(C)(=O)=O)c2cnc(Nc3ccc4c(n3)C3(CC3)[C@@H](C)OC4=O)cc12 (single isomer, unassigned) [Compound 66] | 21 nM | 0.24 nM | –
CCS(=O)(=O)CC[C@@H](C)Oc1ncc(C(C)(C)N)c2cc(Nc3ccc4c(n3)[C@@H](C)C(C)(C)OC4=O)ncc12 (single isomer, unassigned) [Compound 99] | – | 0.39 nM | 72 nM
C[C@H](CCS(C)(=O)=O)Oc1ncc(C(C)(C)N)c2cc(Nc3ccc4c(n3)C3(CC3)C(C)(C)OC4=O)ncc12 [Compound 67] | 40 nM | 0.77 nM | –
CC[C@@](C)(N)c1cnc(O[C@@H](C)CCS(C)(=O)=O)c2cnc(Nc3ccc4c(n3)[C@@H](C)[C@@H](C)OC4=O)cc12 (single isomer, unassigned) [Compound 148] | 26 nM | 0.57 nM | –
C[C@@H]1COC(=O)c2ccc(Nc3cc4c(C(C)(C)N)cnc(O[C@H]5C[C@@H](S(=O)(=O)C6CC6)C5)c4cn3)nc21 (single isomer, unassigned) [Compound 26] | 17 nM | 0.26 nM | –
C[C@@H]1c2nc(Nc3cc4c(C(C)(C)N)cnc(O[C@H]5C[C@@H](S(C)(=O)=O)C5)c4cn3)ccc2C(=O)OC1(C)C [Compound 42, (R)-2-((5-(2-Aminopropan-2-yl)-8-(cis-3-(methylsulfonyl)cyclobutoxy)-2,7-naphthyridin-3-yl)amino)-7,7,8-trimethyl-7,8-dihydro-5H-pyrano[4,3-b]pyridin-5-one] | 9 nM | 0.09 nM | –
COC[C@@](C)(N)c1cnc(O[C@H]2C[C@@H](S(C)(=O)=O)C2)c2cnc(Nc3ccc4c(n3)[C@@H](C)C(C)(C)OC4=O)cc12 [Compound 123] | 34 nM | 0.16 nM | –
C[C@@H]1OC(=O)c2ccc(Nc3cc4c([C@](C)(N)C5CC5)cnc(O[C@H]5C[C@@H](S(C)(=O)=O)C5)c4cn3)nc2[C@H]1C [Compound 60] | 10 nM | 0.19 nM | –
CCS(=O)(=O)[C@H]1C[C@@H](Nc2ncc(C(C)(C)N)c3cc(Nc4ccc5c(n4)[C@@H](C)C(C)(C)OC5=O)ncc23)C1 [Compound 64] | 105 nM | 0.21 nM | –
CC[C@@](C)(N)c1cnc(O[C@@H](C)CCS(=O)(=O)CC)c2cnc(Nc3ccc4c(n3)[C@@H](C)C(C)(C)OC4=O)cc12 [Compound 132] | 66 nM | 0.19 nM | –
CC[C@@](C)(N)c1cnc(O[C@H](C)C[C@@H](C)S(C)(=O)=O)c2cnc(Nc3ccc4c(n3)[C@H](C)COC4=O)cc12 (single isomer, unassigned) [Compound 47] | 53 nM | 0.38 nM | –
C[C@H](C[C@@H](C)S(C)(=O)=O)Oc1ncc([C@H](N)C2CC2)c2cc(Nc3ccc4c(n3)[C@@H](C)C(C)(C)OC4=O)ncc12 (single isomer, unassigned) [Compound 110] | 36 nM | 0.22 nM | –
C[C@H](CCS(C)(=O)=O)Oc1ncc(C(C)(C)N)c2cc(Nc3ccc4c(n3)[C@@H](C)C(C)(C)OC4=O)ncc12 (single isomer, unassigned) [Compound 55] | 34 nM | 0.36 nM | –
CCS(=O)(=O)[C@H](C)C[C@@H](C)Oc1ncc(C(C)(C)N)c2cc(Nc3ccc4c(n3)[C@@H](C)C(C)(C)OC4=O)ncc12 [Compound 128] | 36 nM | 0.16 nM | –
CC[C@@](C)(N)c1cnc(O[C@H](C)CCS(C)(=O)=O)c2cnc(Nc3ccc4c(n3)C3(CC3)C(C)(C)OC4=O)cc12 [Compound 105] | 41 nM | 0.37 nM | –
CC(C)(N)c1cnc(O[C@H]2C[C@@H](S(C)(=O)=O)C2)c2cnc(Nc3ccc4c(n3)C(C)(C)COC4=O)cc12 [Compound 11] | 39 nM | 0.29 nM | –
CC[C@@](C)(N)c1cnc(O[C@H](C)C[C@@H](C)[S@](C)(=N)=O)c2cnc(Nc3ccc4c(n3)C3(CC3)[C@@H](C)OC4=O)cc12 (single isomer, unassigned) [Compound 181] | 85 nM | 0.18 nM | –
CC[C@@](C)(N)c1cnc(O[C@H](C)C[C@@H](C)[S@@](C)(=N)=O)c2cnc(Nc3ccc4c(n3)C(C)(C)[C@@H](C)OC4=O)cc12 (single isomer, unassigned) [Compound 182] | – | 0.16 nM | 21 nM

Next, values leading:

EC50 ([1]; Homo sapiens, T-cell, 24 h) | IC50 [2] | EC50 [1] | SMILES
3 nM | 0.06 nM | – | CC[C@@](C)(N)c1cnc(O[C@H]2C[C@@H](S(=O)(=O)CC)C2)c2cnc(Nc3ccc4c(n3)[C@@H](C)[C@H](C)OC4=O)cc12 [Compound 77]
9 nM | 0.08 nM | – | CCS(=O)(=O)[C@H]1C[C@@H](Oc2ncc(C(C)(C)N)c3cc(Nc4ccc5c(n4)[C@@H](C)C(C)(C)OC5=O)ncc23)C1 [Compound 80]
– | 0.16 nM | 9 nM | CC[C@@](C)(N)c1cnc(O[C@@H]2C[C@H](S(C)(=O)=O)[C@H]2C)c2cnc(Nc3ccc4c(n3)[C@@H](C)[C@H](C)OC4=O)cc12 (single isomer, unassigned) [Compound 151]
27 nM | 0.11 nM | – | C[C@@H]1c2nc(Nc3cc4c(C(C)(C)N)cnc(O[C@H]5C[C@@H](S(=O)(=O)N(C)C)C5)c4cn3)ccc2C(=O)OC1(C)C [Compound 118]
3 nM | 0.11 nM | – | CC[C@@](C)(N)c1cnc(O[C@H](C)C[C@@H](C)S(C)(=O)=O)c2cnc(Nc3ccc4c(n3)[C@@H](C)[C@H](C)OC4=O)cc12 [Compound 90]
7 nM | 0.16 nM | – | CC[C@@](C)(N)c1cnc(O[C@H](C)C[C@@H](C)S(C)(=O)=O)c2cnc(Nc3ccc4c(n3)[C@@H](C)C(C)(C)OC4=O)cc12 [Compound 129]
25 nM | 0.13 nM | – | CCS(=O)(=O)C[C@H]1C[C@@H](Oc2ncc(C(C)(C)N)c3cc(Nc4ccc5c(n4)[C@@H](C)C(C)(C)OC5=O)ncc23)C1 (single isomer, unassigned) [Compound 112]
21 nM | 0.11 nM | – | CC[C@@](C)(N)c1cnc(O[C@@H](C)CCS(C)(=O)=O)c2cnc(Nc3ccc4c(n3)[C@@H](C)[C@H](C)OC4=O)cc12 [Compound 53]
39 nM | 0.12 nM | – | C[C@@H]1c2nc(Nc3cc4c(C(C)(C)N)cnc(OC5CS(=O)(=O)C5)c4cn3)ccc2C(=O)OC1(C)C [Compound 3]
15 nM | 0.14 nM | – | C[C@@H]1c2nc(Nc3cc4c(C(C)(C)N)cnc(O[C@H]5C[C@@H](S(=O)(=O)C6CC6)C5)c4cn3)ccc2C(=O)OC1(C)C [Compound 102]
15 nM | 0.15 nM | – | CC[C@@](C)(N)c1cnc(O[C@H](C)C[C@@H](C)S(C)(=O)=O)c2cnc(Nc3ccc4c(n3)C(C)(C)[C@H](C)OC4=O)cc12 (single isomer, unassigned) [Compound 186]
14 nM | 0.09 nM | – | CCS(=O)(=O)[C@H]1C[C@@H](Oc2ccc(C(C)(C)N)c3cc(Nc4ccc5c(n4)[C@@H](C)C(C)(C)OC5=O)ncc23)C1 [Compound 63]
15 nM | 0.14 nM | – | CC[C@@](C)(N)c1cnc(O[C@H](C)CCS(=O)(=O)CC)c2cnc(Nc3ccc4c(n3)[C@@H](C)[C@H](C)OC4=O)cc12 (single isomer, unassigned) [Compound 92]
28 nM | 0.07 nM | – | C[C@@H]1c2nc(Nc3cc4c(C(C)(C)N)cnc(O[C@H]5C[C@H](CS(C)(=O)=O)C5)c4cn3)ccc2C(=O)OC1(C)C (single isomer, unassigned) [Compound 75]
